Experimental data taken from patent US20150246024A1 (priority 2012, published 2015).
Values after ≈ are worked out from the molar mass of the structure shown. Values joined by “and” are separate entries in the source; they are usually repeats but may differ in a detail not shown here. Equal values may be shown once. “Also recorded” adds a separate entry of the source.

How the values were obtained:
[1] = test system: LTA production in S. aureus; assay: Inhibition of LTA synthesis in S. aureus (immunoblot)
E. faecalis V583 [2] = type: cell-based
B. anthracis Ames = type: cell-based; conditions: 37° C., 18-22 hours, OD600
C. difficile JIR8094 = assay: Growth inhibition assay (MIC/IC50), 96-well; type: cell-based; conditions: sigmoidal fit
[3] = Half-life of compound in mice (blood, HPLC, mass spectrometry); type: in vivo; conditions: 32 mg/kg intraperitoneal
Procedure: The therapeutic impact of compound 1771 during infection was examined. First, we evaluated the half-life of compound 1771 in vivo. Animals received intraperitoneal injections with 32 mg/kg of compound. The blood of three animals was drawn 1, 6 and 12 hours following intraperitoneal injections and the compound was extracted with methanol and chloroform, separated by reverse phase HPLC and subjected to mass spectrometry (data not shown). […] The conversion occurred between 3 and 6 hours. To evaluate, the efficacy of compound 1771, we used a mouse model of staphylococcal sepsis. Animals received intraperitoneal injections with 32 mg/kg of compound in 12-hour intervals. Treatment was initiated 24 hours prior to challenge and terminated at 72 hours post infection.
To examine the therapeutic value of compound 1771, we evaluated its half-life in mice. Animals received a single intraperitoneal injection of 32 mg/kg compound 1771. The blood of three animals was drawn 1, 6 and 12 hours following 1771 injection and serum samples were extracted with methanol and chloroform, separated by reversed-phase HPLC and subjected to mass spectrometry. […] Full conversion of compound 1771 into its two cleavage fragments occurred between 3 and 6 hours following injection. […]

B. anthracis Sterne [4] = type: cell-based; conditions: 5 μM compound, liquid culture
B. cereus G9142 = type: cell-based
S. aureus RN4220 [5] = assay: Growth of S. aureus culture with sub-lethal compound (OD600); conditions: until control culture OD600 1.0
C. difficile CD196 = assay: Growth inhibition assay (MIC/IC50), 96-well; type: cell-based
E. faecalis V583 [6] = type: cell-based; remark: listed apart in the source
[7] = target: Recombinant S. aureus LtaSSA expressed in E. coli (Staphylococcus aureus, UniProt Q2G093); type: cell-based
Sequence of Recombinant S. aureus LtaSSA expressed in E. coli (Q2G093 whole entry): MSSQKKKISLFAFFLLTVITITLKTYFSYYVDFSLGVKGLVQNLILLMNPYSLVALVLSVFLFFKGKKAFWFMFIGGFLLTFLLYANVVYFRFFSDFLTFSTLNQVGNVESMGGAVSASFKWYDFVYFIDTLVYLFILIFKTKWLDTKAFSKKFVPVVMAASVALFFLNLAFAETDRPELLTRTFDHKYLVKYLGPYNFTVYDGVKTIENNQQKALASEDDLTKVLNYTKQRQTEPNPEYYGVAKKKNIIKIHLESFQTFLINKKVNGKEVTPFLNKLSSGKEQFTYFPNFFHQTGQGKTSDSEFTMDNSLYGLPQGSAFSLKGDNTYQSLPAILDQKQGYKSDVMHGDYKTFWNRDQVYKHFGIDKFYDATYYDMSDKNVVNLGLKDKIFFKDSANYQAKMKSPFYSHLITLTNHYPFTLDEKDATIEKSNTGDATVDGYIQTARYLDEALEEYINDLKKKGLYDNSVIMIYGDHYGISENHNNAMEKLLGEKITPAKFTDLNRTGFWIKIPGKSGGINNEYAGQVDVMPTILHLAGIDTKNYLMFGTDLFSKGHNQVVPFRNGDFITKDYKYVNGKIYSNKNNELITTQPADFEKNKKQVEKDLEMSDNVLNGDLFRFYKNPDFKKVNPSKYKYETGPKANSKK

S. aureus RN4220 (MSSA) = assay: microbe, parasite or virus in culture; type: cell-based; conditions: 37° C., 18-22 hours, OD600
E. faecium - VRE TX0016 = assay: microbe, parasite or virus in culture; type: cell-based; conditions: 37° C., 18-22 hours, OD600
E. faecium TX0016 [8] = type: cell-based
B. anthracis Sterne [9] = assay: microbe, parasite or virus in culture; type: cell-based; conditions: 37° C., 18-22 hours, OD600
B. anthracis Sterne [10] = type: cell-based
S. aureus RN4220 [11] = type: cell-based
C. perfringens SM101 = type: cell-based; conditions: nitrogen atmosphere, 37° C., 18-22 hours
S. aureus RN4220 [12] = type: cell-based; remark: listed apart in the source
E. faecium TX0016 [13] = type: cell-based; remark: listed apart in the source
[14] = test system: S. aureus RN4220 colony isolates from gradient plates with 10-200 μM compound 1771; assay: Susceptibility of colony isolates from compound 1771 gradient plates; type: cell-based
E. coli = type: cell-based
S. aureus - MRSA USA300 = assay: microbe, parasite or virus in culture; type: cell-based; conditions: 37° C., 18-22 hours, OD600
[15] = test system: B. anthracis LtaS2BA expressed in E. coli; type: cell-based; conditions: 200 μM compound
C. difficile UK1 = assay: Growth inhibition assay (MIC/IC50), 96-well; type: cell-based
eLtaS = eLtaS (Staphylococcus aureus, UniProt Q2G093); assay: eLtaS-mediated cleavage of NBD-PGC6 to NBD-DAGC6; type: biochemical, S. aureus; conditions: 100 μM compound, 6 hours, 37° C.
Sequence of eLtaS (Q2G093 218-646): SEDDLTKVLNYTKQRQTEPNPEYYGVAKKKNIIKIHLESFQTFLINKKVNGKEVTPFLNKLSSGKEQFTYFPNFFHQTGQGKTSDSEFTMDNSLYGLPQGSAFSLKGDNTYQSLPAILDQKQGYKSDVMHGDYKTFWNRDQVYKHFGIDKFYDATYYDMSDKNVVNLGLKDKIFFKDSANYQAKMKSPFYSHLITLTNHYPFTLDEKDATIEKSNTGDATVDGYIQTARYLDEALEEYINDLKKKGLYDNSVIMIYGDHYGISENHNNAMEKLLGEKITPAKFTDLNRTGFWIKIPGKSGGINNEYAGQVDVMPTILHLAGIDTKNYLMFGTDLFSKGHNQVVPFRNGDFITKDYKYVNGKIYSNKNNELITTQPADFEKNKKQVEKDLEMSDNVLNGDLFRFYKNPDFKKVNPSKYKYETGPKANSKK
Procedure: FIG. 10. Compound 1771 inhibits eLtaS binding to and cleavage of phosphatidylglycerol (PG) in vitro. Using NBD-PGC6 with 6 carbon acyl chains cleavage of 2 nmol substrate by 2 nmol eLtaS was detectable after 6 hours incubation at 37° C. Chloroform extraction separated non-hydrolyzed NBD-PGC6 (aqueous phase—AP) from the hydrophobic reaction product nitro-benzoxadiazole diacylglycerol (NBD-DAGC6), which segregated into the organic phase (OP). Both phases were analyzed by normal-phase HPLC on a diol column (solid line). Elution profiles were monitored by fluorescence (excitation at 460 nm, emission at 534 nm). Identity of peak fractions was confirmed by mass spectrometry. Addition of 100 μM compound 1771 blocked NBD-DAGC6 production by eLtaS (dashed line).
We used size exclusion HPLC with BioBasic SEC300 column equilibrated with 20 nmol nitro-benzoxadiazole glycerol-phosphate (NBD-GP) to measure binding of enzyme to substrate. Chromatography of 2 nmol eLtaS on BioBasic SEC300 column led to the elution of enzyme.NBD-GP complex and absorbance at 460 nm (FIG. 5). […]

C. difficile R20291 = assay: Growth inhibition assay (MIC/IC50), 96-well; type: cell-based
E. faecalis - VRE V583 = assay: microbe, parasite or virus in culture; type: cell-based; conditions: 37° C., 18-22 hours, OD600
[16] = target: extracellular S. aureus LtaS (eLtaS) (Staphylococcus aureus, UniProt Q2G093); type: binding; conditions: 200 μM compound in mobile phase
Sequence of extracellular S. aureus LtaS (eLtaS) (Q2G093 218-646): as above

S. aureus RN4220 [17] = assay: High throughput screen for growth inhibitors, 384-well; type: cell-based; conditions: Staphylococcus aureus, positive control, vs medium alone
Procedure: The antibiotic sensitive strain S. aureus RN4220 was used to screen for small molecule growth inhibitors in a high throughput-screening assay using 384-well microplates. Cation-adjusted Hinton Mueller II broth supplemented with 0.005% Tween-80 was inoculated with a single colony of S. aureus RN4220. Following overnight incubation, the culture was diluted 1:100 in fresh medium and incubation was continued until the bacterial suspension reached an optical density at 600 nm (OD600) of 0.6 corresponding to a bacterial titer of 5×10^8 colony forming units (CFU) per ml. An aliquot of this culture was diluted 1:400 with fresh medium and stored on ice until it could be dispensed in 384-well plates. Small-scale experiments were conducted to determine the Z′-factor (1-[(3SD^−)+(3SD^+)/(Ave^−)−(Ave^+)]) used commonly for quality assessment of raw data sets generated in high-throughput screening. In this formula, (SD^+/−) and (Ave^+/−) represent standard deviation and average of positive and negative controls. […] The OD600 in each well was recorded after 20 hours incubation. […] After 20 hours, the OD600 was measured using a plate reader in absorbance mode. […]
S. aureus lacking the ltaS gene is unable to grow at temperatures […]. […] The quality of the screen was assessed for every assay plate with the Z′-factor, a measure for data variability within the dynamic range of the assay (Zhang et al. 1999). […]

O=C(COC(=O)Cc1coc2ccc3ccccc3c12)Nc1nnc(-c2ccccc2)o1 [Compound 1771, 2-oxo-2-[(5-phenyl-1,3,4-oxadiazol-2-yl)amino]ethylnaphtho[2,1-b]furan-1-ylacetate]
LtaS immunoreactive signals ([1]; 5 μM compound): slightly unstable; also recorded: reduced | abundance of sortase A (SrtA), control ([1]; 2 or 5 μM compound): remained unaffected; also recorded: not affected | LTA production (immunoblot α-LTA) ([1]; sub-lethal concentrations of compound): affect the production of LTA; also recorded: reduced the abundance of LTA | Cell envelope diameter (E. faecalis V583 [2]): 31.6 (±0.6) nm | Cell envelope diameter Δ (1771 vs mock) (E. faecalis V583 [2]): 7.8 (±0.7) nm | MIC (B. anthracis Ames): 12.5 µM (≈ 5.34 µg/mL) | IC50 (B. anthracis Ames; sigmoidal fit): 7.6 µM | IC50 (C. difficile JIR8094): 8.2 µM | stability in mice [3]: unstable in mice with rapid loss of activity | chain length of vegetative bacilli (B. anthracis Sterne [4]): increased chain length; also recorded: formed longer chains | IC50 (B. cereus G9142): 10.7 µM | MIC (B. cereus G9142): 25.0 µM (≈ 10.7 µg/mL) | reduced growth of staphylococci (S. aureus RN4220 [5]; 2 μM compound): 50% | reduced growth of staphylococci (S. aureus RN4220 [5]; 5 μM compound): 75% | MIC (C. difficile CD196): 6.5 µM (≈ 2.78 µg/mL) | IC50 (C. difficile CD196; sigmoidal fit): 4.3 µM | Cell clusters/all cocci (E. faecalis V583 [6]): 2/496 | production of LTA promoted by plasmid encoded LtaSSA [7]: abrogated | MIC (S. aureus RN4220 (MSSA)): 12.5 µM (≈ 5.34 µg/mL) | IC50 (S. aureus RN4220 (MSSA); sigmoidal fit, read-out: IC50): 7.48 µM and 7.3 µM | MIC (E. faecium - VRE TX0016): 50.0 µM (≈ 21.4 µg/mL) | IC50 (E. faecium - VRE TX0016; sigmoidal fit, read-out: IC50): 23.3 µM | Cell clusters/all cocci (E. faecium TX0016 [8]): 1/295 | MIC (B. anthracis Sterne [9]): 12.5 µM (≈ 5.34 µg/mL) | IC50 (B. anthracis Sterne [9]; sigmoidal fit, read-out: IC50): 7.7 µM and 6.53 µM | Cell envelope diameter Δ (1771 vs mock) (B. anthracis Sterne [10]; 8 μM compound): 6.3 (±1.0) nm | Cell envelope diameter (B. anthracis Sterne [10]; BHI agar with 8 μM compound, mean of 124 (SEM)): 46.8 (±0.7) nm | Cell envelope diameter (S. aureus RN4220 [11]): 38.8 (±0.9) nm | Cell envelope diameter Δ (1771 vs mock) (S. aureus RN4220 [11]): 7.5 (±1.1) nm | MIC (C. perfringens SM101): 6.2 µM (≈ 2.65 µg/mL) | IC50 (C. perfringens SM101; sigmoidal fit): 2.5 µM | Cell clusters/all cocci (S. aureus RN4220 [12]): 3/387 | Cell envelope diameter (E. faecium TX0016 [13]): 32.4 (±0.5) nm | Cell envelope diameter Δ (1771 vs mock) (E. faecium TX0016 [13]): 9.6 (±0.6) nm | IC50 ([14]; Isolate 1): 8.7 µM | MIC ([14]; Isolate 1): 18.8 µM (≈ 8.04 µg/mL) | IC50 ([14]; Isolate 2): 9.2 µM | MIC ([14]; Isolate 2): 18.8 µM (≈ 8.04 µg/mL) | IC50 ([14]; Isolate 3): 12.2 µM | MIC ([14]; Isolate 3): 18.8 µM (≈ 8.04 µg/mL) | growth of E. coli (E. coli): not affected; also recorded: did not affect the growth | MIC (S. aureus - MRSA USA300): 50.0 µM (≈ 21.4 µg/mL) | IC50 (S. aureus - MRSA USA300; sigmoidal fit, read-out: IC50): 14 µM | LTA production by LtaS2BA [15]: completely abolished; also recorded: abrogated | MIC (C. difficile UK1): 6.2 µM (≈ 2.65 µg/mL) | IC50 (C. difficile UK1; sigmoidal fit): 3.3 µM | NBD-DAGC6 production by eLtaS (eLtaS): blocked; also recorded: inhibited | MIC (C. difficile R20291): 6.2 µM (≈ 2.65 µg/mL) | IC50 (C. difficile R20291; sigmoidal fit): 5.3 µM | MIC (E. faecalis - VRE V583): 50.0 µM (≈ 21.4 µg/mL) | IC50 (E. faecalis - VRE V583; sigmoidal fit, read-out: IC50): 27.3 µM | Co-elution of phosphatidylglycerol with eLtaS, reduction [16]: more than 95% | elution of NBD-PG.eLtaS complex [16]: abolished

O=C(N[C@H](CO)[C@H](O)c1ccc([N+](=O)[O-])cc1)C(Cl)Cl [chloramphenicol]
inhibition at 80 µM (S. aureus RN4220 [17]): 100%
